The values that follow come from patent US11014924B2, “Hydantoin containing deoxyuridine triphosphatase inhibitors” (CV6 Therapeutics (NI) Limited, priority 2016, dated 2021).

For one assay, the system named is H358 cells. As to the kind of experiment: Colony forming assay. The format is cell-based. The following applies: non-small cell lung H358; FUdR between 0.5 and 2.5 μmol/L. The protocol:
(§1) Colony forming assay showing the ability of colon (SW620, HCT116), non-small cell lung (A549, H460, H1299 and H358) and breast (MCF7) cancer cells to survive and proliferate following transient 24 hour exposure to test compounds, FUdR and combinations are determined. Specifically, cells are seeded at densities between 50 and 100 cells/well in 24-well plates. Twenty-four hours later, cells are treated with increasing concentrations of a rtest compound, a fixed dose of FUdR and combinations of these. After 24 hours, drug is removed, cells are rinsed and allowed to outgrow for 10-14 days. At the conclusion of the outgrowth, cells are fixed in 60% ice cold methanol and stained with 0.1% crystal violet, scanned and counted. Data is presented as percentage of untreated controls (mean±SD). Fraction affected and combination indexes are calculated according to the method of Chou and Talalay where <1 is indicative of a synergistic drug interaction.
(§2) Colony forming assays are performed to evaluate the effectiveness of test compounds alone and in combination with the fluoropyrimidine thymidylate synthase (TS) inhibitor fluorodeoxyuridine (FUdR) at reducing cancer cell viability in colorectal (HCT116), breast (MCF-7) and non-small cell lung (H1299, A549, H358 and H460) cell line models. […] In colorectal cancer cells, concentrations of test compounds ranging e.g., from 3.1 μmol/L to 50 μmol/L are combined with 0.5 μmol/L FUdR in HCT116 cells and 1 μmol/L FUdR in SW620 cells.

The subject of the next assay is MCF-7 cells. As to the kind of experiment: Colony forming assay. The format is cell-based. The following applies: breast MCF-7; FUdR between 0.5 and 2.5 μmol/L. The protocol: as §1, §2
The subject of assay [1] is HCT116 cells. The experiment in a line: Colony forming assay. The format is cell-based. The conditions noted are these: colorectal HCT116; FUdR between 0.5 and 2.5 μmol/L. The protocol: as §1, §2
Another assay deals with H1299 cells. As to the kind of experiment: Colony forming assay. The class given is cell-based. The conditions noted are these: non-small cell lung H1299; FUdR between 0.5 and 2.5 μmol/L. As to the method:
as §1, §2

For a further assay, the system named is A549 cells. The experiment in a line: Colony forming assay. The class given is cell-based. The conditions noted are these: non-small cell lung A549; FUdR between 0.5 and 2.5 μmol/L. The protocol:
as §1, §2

The next assay relates to H460 cells. As to the kind of experiment: Colony forming assay. The format is cell-based. The conditions noted are these: non-small cell lung H460; FUdR between 0.5 and 2.5 μmol/L. As to the method:
as §1, §2

In assay [2] the target is T1, recombinant human deoxyuridine nucleotidohydrolase (dUTPase) (Homo sapiens, UniProt P33316).
T1 construct: made in house
T1 sequence (P33316 1-164 isoform P33316-2): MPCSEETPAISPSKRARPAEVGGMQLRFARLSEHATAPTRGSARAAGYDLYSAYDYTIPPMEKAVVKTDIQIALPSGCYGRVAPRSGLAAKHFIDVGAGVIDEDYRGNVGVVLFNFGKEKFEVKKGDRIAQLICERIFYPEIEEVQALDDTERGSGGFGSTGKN
As to the kind of experiment: fluorescence-based dUTPase inhibition assay. The class given is biochemical. The conditions noted are these: 5 ng recombinant dUTPase, 50 pmols dUTP, 37° C. for 8 mins. From the text:
Recombinant human deoxyuridine nucleotidohydrolase (dUTPase) is expressed and purified as described in Ladner R D, Carr S A, Huddleston M J, McNulty D E, Caradonna S J. J Biol Chem. 1996 Mar. 29; 271(13):7752-7. All drugs stocks are aliquoted and diluted as appropriate prior to use. The oligonucleotide primer, templates and fluorophore- and quencher-labeled detection probes are synthesized by Integrated DNA Technologies (Coralville, Iowa), subjected to polyacrylamide gel electrophoresis purification and reconstituted in Omnipur sterile nuclease-free water (EMD Chemicals USA, Gibbstown N.J.) at a stock concentration of 100 μmol/L. The two non-emissive (dark) quenching molecules incorporated into the detection probes include the Iowa black […] (IBFQ; absorption max 531 nm) and ZEN (non-abbreviation; absorption max 532 nm). The fluorescent label utilized is 6-FAM (5′-carboxyfluorescein; excitation max.=494 nm, emission max.=520 nm). Probes are further diluted to a working stock of 10 μmol/L and aliquoted to avoid repeated freeze/thaw cycles. […]
Reaction mixtures contained primer, probe and template at an equimolar final concentration of 0.4 μmol/L. Magnesium chloride (MgCl2) is included at a final concentration of 2 mmol/L. Non-limiting dNTPs are included in the reaction mix in excess at a final concentration of 100 μmol/L (dUTP/dTTP is excluded). […] Thermal profiling and fluorescence detection is performed using a customized thermal program on board a Roche Lightcycler LC480 Instrument II. […] Raw fluorescence spectra for 6-FAM is measured at specified time intervals to follow assay progression on board a Roche LightCycler 480 Software Version 1.5 and exported and analyzed in Microsoft Excel (Microsoft, Redmond Wash.) and Prism (GraphPad Software, La Jolla Calif.). Fluorescence values for blank reactions (limiting dNTP omitted) are subtracted to give normalized fluorescence units (NFU) to account for background fluorescence.
Test compounds are screened in a fluorescence-based assay. […]

Assay [3] relates to HCT116 cells. The experiment in a line: MTS growth inhibition assay. The format is cell-based. The conditions noted are these: colorectal HCT116; 5-FU between 0 and 100 μmol/L; 72 hours. The protocol:
(§3) The Cell Titer AQueous MTS assay (Promega) is carried out according to the manufacturers guidelines. […] The combination effect is determined by the combination index (CI) method utilizing Calcusyn software (Biosoft, Ferguson, Mo.). Fraction affected (FA) is calculated from the percent growth inhibition: FA=[…]. CI values <1, synergism; 1-1.2, additive and >1.2, antagonism.
(§4) Test compounds are evaluated for their antitumor activity in colorectal cancer cells using the MTS growth inhibition assay. HCT116 and SW620 cells are exposed to increasing concentrations of each agent for 72 hours and growth inhibition is directly compared to vehicle-treated controls. The NSCLC cell lines A549 and H1299 are exposed to increasing concentrations of each agent for 72 hours and growth inhibition is directly compared to vehicle-treated controls.
(§5) MTS growth inhibition assays are performed to evaluate the effectiveness of the test compounds alone and in combination with the fluoropyrimidine thymidylate synthase (TS) inhibitor 5-fluorouracil (5-FU) at inhibiting the growth of colorectal (HCT116 and SW620) cell line models. […] Simultaneous treatment with increasing concentrations of 5-FU and a test compound at fixed concentrations of 25 μmol/L is determined.

A further assay concerns SW620 cells. As to the kind of experiment: MTS growth inhibition assay. The format is cell-based. The following applies: colorectal SW620; 5-FU between 0 and 100 μmol/L; 72 hours. The protocol:
as §3, §4, §5

In the case of `O=c1[nH]c(=O)n([C@H]2C[C@H](O)[C@@H](CO)O2)cc1F` [FUdR, fluorodeoxyuridine], the colonies formed result with H358 cells, in the assay with MCF-7 cells, in the assay on HCT116 cells [1], in the assay on H1299 cells, in the assay on A549 cells and in the assay on H460 cells was “dose-dependent decreases in colonies formed” in each case.

For the compound `C[C@@H](NS(=O)(=O)Cc1cccc(CN2CC(=O)NC2=O)c1)c1ccc(F)c(OCC2CC2)c1` [Example 81, (R)—N-(1-(3-(cyclopropylmethoxy)-4-fluorophenyl)ethyl)-1-(3-((2,4-dioxoimidazolidin-1-yl)methyl)phenyl)methanesulfonamide], the IC50 in assay [2] was determined as 80 µM.

For `O=c1[nH]cc(F)c(=O)[nH]1` [Example 5-FU, 5-fluorouracil], the growth inhibition entry in the assay on HCT116 cells [3] and with SW620 cells was “dose-dependent increases in growth inhibition” each time.

As for `C[C@@H](NS(=O)(=O)CCc1cccc(N2CC(=O)NC2=O)c1)c1ccc(F)c(OCC2CC2)c1` [Example 79, (R)—N-(1-(3-(cyclopropylmethoxy)-4-fluorophenyl)ethyl)-2-(3-(2,4-dioxoimidazolidin-1-yl)phenyl)ethane-1-sulfonamide], in assay [2], the IC50 is around 100 µM.

Turning to `C[C@@H](NS(=O)(=O)Cc1ccc(CN2CC(=O)NC2=O)cc1)c1ccc(F)c(OCC2CC2)c1` [Example 82, (R)—N-(1-(3-(cyclopropylmethoxy)-4-fluorophenyl)ethyl)-1-(4-((2,4-dioxoimidazolidin-1-yl)methyl)phenyl)methanesulfonamide], in assay [2], the IC50 was found to be 2.2 µM.
